*1 amine or outer side, *2 acyl side, *3 side chain or, on linkers, in order; H or OH if unused. Where a SMILES comes first, the peptide text is derived from it. Bridges are numbered along the chain shown (N, C = ends). [ ]: non-standard residue; d: D form. The star is where a group is joined. hPhe(3,5-F2-4-CF3) = N[C@@H](CCc1cc(F)c(C(F)(F)F)c(F)c1)C(=O)O; hPhe(3-Cl-4-CF3) = N[C@@H](CCc1ccc(C(F)(F)F)c(Cl)c1)C(=O)O; NPrPhe(4-CF3) = CCCN[C@@H](Cc1ccc(C(F)(F)F)cc1)C(=O)O; NMeGly(cPent) = CN[C@H](C(=O)O)C1CCCC1; Pro(4,4-Me2) = CC1(C)CN[C@H](C(=O)O)C1; X7 = C[C@@](N[*:1])(C(=O)[*:2])C1CC1; NMeD = CN[C@@H](CC(=O)O)C(=O)O; NMeL = CN[C@@H](CC(C)C)C(=O)O; Morpholide = C1CN(*)CCO1; Ac5c = NC1(C(=O)O)CCCC1; Aze = O=C(O)[C@@H]1CCN1; Ac4c = NC1(C(=O)O)CCC1; Sar = CNCC(=O)O
Legend:
HRAS wild-type protein = HRAS wild-type protein (Homo sapiens, UniProt P01112); test: Binding to HRAS by surface plasmon resonance (SPR), KD and KD ratio to KRAS
Sequence of HRAS wild-type protein (P01112 whole entry): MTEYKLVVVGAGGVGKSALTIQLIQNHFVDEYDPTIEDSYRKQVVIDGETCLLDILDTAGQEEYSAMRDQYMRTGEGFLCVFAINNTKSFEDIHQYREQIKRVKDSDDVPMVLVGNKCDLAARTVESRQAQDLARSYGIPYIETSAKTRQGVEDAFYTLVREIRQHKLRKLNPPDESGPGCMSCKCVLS
Procedure, shortened: (§1)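 SPR, 30°C: Avi-biotin RAS·GDP captured via Biotin CAPture (~100–300 RU); running buffer HBS pH 7.4, 1 mM DTT, 10 mM MgCl2, 0.01% Tween 20, 10 µM GDP, 4% DMSO. Single-cycle kinetics, 100 µL/min, 75 s injections; 1:1 model → KD.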

[1] = target: GDP-bound NRAS wild-type protein (Homo sapiens, UniProt P01111); test: Binding to NRAS by surface plasmon resonance (SPR), KD and KD ratio to KRAS
Sequence of GDP-bound NRAS wild-type protein (P01111 whole entry): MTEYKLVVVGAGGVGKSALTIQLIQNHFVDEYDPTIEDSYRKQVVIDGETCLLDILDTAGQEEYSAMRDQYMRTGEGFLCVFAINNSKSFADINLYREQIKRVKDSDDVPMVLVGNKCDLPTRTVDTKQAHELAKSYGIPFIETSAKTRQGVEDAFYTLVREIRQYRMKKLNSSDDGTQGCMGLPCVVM
Procedure, shortened: as §1

[2] = target: GDP-bound KRAS wild-type protein (Homo sapiens, UniProt P01116); test: Binding to KRAS by surface plasmon resonance (SPR), dissociation constant KD
Sequence of GDP-bound KRAS wild-type protein (P01116 1-188 isoform P01116-2): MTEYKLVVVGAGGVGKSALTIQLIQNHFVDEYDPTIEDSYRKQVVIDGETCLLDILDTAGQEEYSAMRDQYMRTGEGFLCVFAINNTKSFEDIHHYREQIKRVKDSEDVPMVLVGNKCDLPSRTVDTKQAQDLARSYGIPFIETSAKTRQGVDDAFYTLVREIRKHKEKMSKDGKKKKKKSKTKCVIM
Experimental: Surface plasmon resonance was used to analyze the binding affinity of compounds for KRAS, NRAS, and HRAS. The apparatus used was Biacore 8K, 8K+, or T200 (GE Healthcare), and the running buffer used was HBS (10 mM HEPES-NaOH, 150 mM NaCl, pH 7.4) containing 1 mM DTT, 10 mM MgCl2, 0.01% Tween 20, 10 µM GDP, and 4% DMSO.
Biotinylated Avi-tag fusion KRAS, NRAS, and HRAS proteins were expressed in E. coli BL21 (DE3) strains, and after cells were homogenized, they were purified using Streptavidin Mutein Matrix and Superdex 75. After purification, GDP-loaded KRAS, NRAS, and HRAS proteins were immobilized on the surface of Sensor Chip CAP (Cytiva) coated with Biotin CAPture Reagent in an immobilization amount of about 100 to 300 RU. Binding of each compound was evaluated by the Single Cycle Kinetics method, and a running buffer or a compound solution was added to the RAS protein non-immobilized surface and the immobilized surface to obtain a binding response. The flow rate was set to 100 µL/min, and in the compound-adding cycle, compound solutions having different concentrations were intermittently added for 75 seconds each, starting from a low concentration. […] In the blank cycle, a running buffer was intermittently added and not the compound solution. The Biotin CAPture Reagent and RAS proteins were immobilized for each cycle, and at the end of each cycle, the sensor chip was regenerated by the regeneration solution appended to the Biotin CAPture Kit (Cytiva). Measurement was carried out at 30°C.
The resulting sensorgram was subjected to curve fitting based on a 1:1 binding model on Biacore Insight Evaluation Software or T200 Evaluation Software, and thereby the dissociation constant KD of each compound with respect to KRAS, NRAS, and HRAS was determined. […] Blank indicates a compound from which the KD value with respect to NRAS or HRAS was not obtained.

[3] = system: human lung cancer strain NCI-H441; format: cell-based
Procedure, shortened: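 Proliferation was scored by […] measured after the reagent was added to cultures kept at 37°C in 5% carbon dioxide.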

[4] = ratio of the KD value with respect to HRAS wild-type protein to the KD value with respect to KRAS
[5] = ratio of the KD value with respect to GDP-bound NRAS wild-type protein to the KD value with respect to KRAS
[6] = Single Cycle Kinetics, 1:1 binding model
[7] = ratio of KD value for HRAS wild-type protein to KD value for KRAS (SPR)
[8] = ratio of KD value for GDP-bound NRAS wild-type protein to KD value for KRAS (SPR)
[9] = ratio of KD for HRAS wild-type protein to KD for KRAS
[10] = ratio of KD for GDP-bound NRAS wild-type protein to KD for KRAS

Row | Compound | HRAS /KRAS (HRAS wild-type protein; [4]) | NRAS /KRAS [1, 5] | Kd [2, 6] | IC50 [3] | HRAS /KRAS (HRAS wild-type protein; [7]) | NRAS /KRAS [1, 8] | HRAS /KRAS (HRAS wild-type protein; [9]) | NRAS /KRAS [1, 10] | Kd ([2]; Single Cycle Kinetics) | Kd ([2]; 1:1 binding model)
1 | CCO[C@@H]1C[C@H]2C(=O)NC3(CCC3)C(=O)N(C)[C@@H](C3CCCC3)C(=O)N(C)[C@H](C(=O)N(C)C)CC(=O)N(C)[C@@H](C)C(=O)N[C@@H]([C@H](C)CC)C(=O)N(C)CC(=O)N(C)[C@H]3CCCCCN(C3=O)[C@@H](Cc3ccc(C(F)(F)F)cc3)C(=O)N(C)CC(=O)N[C@@H](CCc3cc(F)c(C(F)(F)F)c(F)c3)C(=O)N2C1 [PP0729] | B (a compound having 3 or more and less than 10 is denoted as B) | B (a compound having 3 or more and less than 10 is denoted as B) | 2.7 nM | 216 nM |  |  |  |  |  | 
2 | CCO[C@@H]1C[C@H]2C(=O)NC3(CC(C)(C)C3)C(=O)N(C)[C@@H](C3CCCC3)C(=O)N(C)[C@H](C(=O)N(C)C)CC(=O)N(C)[C@@H](CC3CCCC3)C(=O)N[C@@H]([C@@H](C)CC)C(=O)N(C)CC(=O)N(C)[C@H]3C/C=C\CCN(C3=O)[C@@H](Cc3ccc(C(F)(F)F)cc3)C(=O)N(C)CC(=O)N[C@@H](CCc3ccc(C(F)(F)F)c(OC)c3)C(=O)N2C1 [PP1565] |  |  | 0.11 nM | 6.5 nM | B (a compound having 3 or more and less than 10 is denoted as B) | A (a compound having 10 or more and less than 20 is denoted as A) |  |  |  | 
3 | CC[C@H](C)[C@@H]1NC(=O)[C@H](CC2CCC2)N(C)C(=O)C[C@@H](C(=O)N(C)C)N(C)C(=O)[C@H](C2CCCC2)N(C)C(=O)C2(CCC2)N(C)C(=O)[C@@H]2C[C@@H](C)CN2C(=O)[C@H](CCc2cc(F)c(C(F)(F)F)c(F)c2)NC(=O)CN(C)C(=O)[C@H](Cc2ccc(C)cc2)N2CC/C=C\C[C@@H](C2=O)N(C)C(=O)CN(C)C1=O [PP1803] |  |  | 0.1 nM | 7.6 nM | B (a compound having 3 or more and less than 10 is denoted as B) | A (a compound having 10 or more and less than 20 is denoted as A) |  |  |  | 
4 | CCO[C@@H]1C[C@H]2C(=O)NC3(CCC3)C(=O)N(C)[C@@H](C3CCCC3)C(=O)N(C)[C@H](C(=O)N(C)C)CC(=O)N(CC)[C@@H](CC(C)C)C(=O)N[C@@H]([C@@H](C)CC)C(=O)N(C)CC(=O)N(C)[C@H]3CC(C)=CCN(C3=O)[C@@H](Cc3ccc(C(F)(F)F)cc3)C(=O)N(C)CC(=O)N[C@@H](CCc3cc(F)c(C(F)(F)F)c(F)c3)C(=O)N2C1 [PP1037] |  |  |  | 296 nM |  |  | C (A compound having a KD ratio of 0.1 or more and less than 3 is denoted as C) | C (A compound having a KD ratio of 0.1 or more and less than 3 is denoted as C) | 0.76 nM | 
5 | CCCN1C(=O)CN(C)C(=O)[C@@H]2CCN2C(=O)[C@H]([C@@H](C)CC)NC(=O)[C@H](CC(C)C)N(C)C(=O)C[C@@H](C(=O)N2CCOCC2)NC(=O)[C@H](C2CCCC2)N(C)C(=O)C2(CCC2)NC(=O)[C@@H]2CCCN2C(=O)[C@H](CCc2ccc(C(F)(F)F)c(Cl)c2)NC(=O)CN(C)C(=O)[C@@H]1Cc1ccc(C(F)(F)F)cc1 [PP0338] ([NMeL]I[Aze][Sar][NPrPhe(4-CF3)][Sar][hPhe(3-Cl-4-CF3)]P[Ac4c][NMeGly(cPent)]D-Morpholide; lactam N-11) |  |  |  | 296 nM |  |  | B (a compound having 3 or more and less than 10 is denoted as B) | B (a compound having 3 or more and less than 10 is denoted as B) |  | 3.6 nM
6 | CCCN1C(=O)CN(C)C(=O)[C@@H]2CCN2C(=O)[C@H]([C@@H](C)CC)NC(=O)[C@H](CC(C)C)N(C)C(=O)C[C@@H](C(=O)N2CCOCC2)N(C)C(=O)[C@H](C2CCCC2)N(C)C(=O)[C@](C)(C2CC2)NC(=O)[C@@H]2CCCN2C(=O)[C@H](CCc2cc(F)c(C(F)(F)F)c(F)c2)NC(=O)CN(C)C(=O)[C@@H]1Cc1ccc(C(F)(F)F)cc1 [PP0772] ([NMeL]I[Aze][Sar][NPrPhe(4-CF3)][Sar][hPhe(3,5-F2-4-CF3)]P[X7][NMeGly(cPent)][NMeD]-Morpholide; lactam N-11) |  |  |  | 434 nM |  |  | B (a compound having 3 or more and less than 10 is denoted as B) | B (a compound having 3 or more and less than 10 is denoted as B) | 4.3 nM | 
7 | CCC[C@H]1C(=O)N[C@@H]([C@@H](C)CC)C(=O)N(C)CC(=O)N(C)[C@H]2C/C=C\CCN(C2=O)[C@@H](Cc2ccc(C)cc2)C(=O)N(C)CC(=O)N[C@@H](CCc2ccc(C(F)(F)F)c(OC)c2)C(=O)N2C[C@H](C)C[C@H]2C(=O)NC2(CC(C)(C)C2)C(=O)N(C)[C@@H](C2CCCC2)C(=O)N(C)[C@H](C(=O)N(C)C)CC(=O)N1C [PP1890] |  |  | 0.15 nM | 3.6 nM | B (a compound having 3 or more and less than 10 is denoted as B) | A (a compound having 10 or more and less than 20 is denoted as A) |  |  |  | 
8 | CCO[C@@H]1C[C@H]2C(=O)NC3(CC(C)(C)C3)C(=O)N(C)[C@@H](C3CCCC3)C(=O)N(C)[C@H](C(=O)N(C)CC)CC(=O)N(C)[C@@H](CC(C)C)C(=O)N[C@@H]([C@@H](C)CC)C(=O)N(C)CC(=O)N(C)[C@H]3C/C=C\CCN(C3=O)[C@@H](Cc3ccc(C(F)F)cc3)C(=O)N(C)CC(=O)N[C@@H](CCc3ccc(C4CC4)c(C)c3)C(=O)N2C1 [PP3156] |  |  |  | 63.8 nM |  |  | A (a compound having 10 or more and less than 20 is denoted as A) | A (a compound having 10 or more and less than 20 is denoted as A) |  | 2 nM
9 | CCC[C@H]1C(=O)N[C@@H]([C@@H](C)CC)C(=O)N(C)CC(=O)N(C)[C@H]2C/C=C\CCN(C2=O)[C@@H](Cc2ccc(C)cc2)C(=O)N(C)CC(=O)N[C@@H](CCc2ccc(C(F)(F)F)c(OC)c2)C(=O)N2CC3(CC3)C[C@H]2C(=O)NC2(CC(C)(C)C2)C(=O)N(C)[C@@H](CC(C)(C)C)C(=O)N(C)[C@H](C(=O)N(C)C)CC(=O)N1C [PP3009] |  |  |  | 7.7 nM |  |  | A (a compound having 10 or more and less than 20 is denoted as A) | A (a compound having 10 or more and less than 20 is denoted as A) |  | 0.073 nM
10 | CCCN1C(=O)CN(C)C(=O)[C@@H]2CCN2C(=O)[C@H]([C@@H](C)CC)NC(=O)[C@H](CC(C)C)N(C)C(=O)C[C@@H](C(=O)N2CCOCC2)N(C)C(=O)[C@H](C2CCCC2)N(C)C(=O)C2(CCCC2)NC(=O)[C@@H]2CC(C)(C)CN2C(=O)[C@H](CCc2ccc(C(F)(F)F)c(Cl)c2)NC(=O)CN(C)C(=O)[C@@H]1Cc1ccc(C(F)(F)F)cc1 [PP0452] ([NMeL]I[Aze][Sar][NPrPhe(4-CF3)][Sar][hPhe(3-Cl-4-CF3)][Pro(4,4-Me2)][Ac5c][NMeGly(cPent)][NMeD]-Morpholide; lactam N-11) | B (a compound having 3 or more and less than 10 is denoted as B) | B (a compound having 3 or more and less than 10 is denoted as B) | 0.73 nM | 34.1 nM |  |  |  |  |  | 
11 | CCCN1C(=O)CN(C)C(=O)[C@@H]2CCN2C(=O)[C@H]([C@@H](C)CC)NC(=O)[C@H](CC(C)C)N(C)C(=O)C[C@@H](C(=O)N2CCOCC2)N(C)C(=O)[C@H](C2CCCC2)N(C)C(=O)C2(CCCC2)NC(=O)[C@@H]2CCCN2C(=O)[C@H](CCc2ccc(C(F)(F)F)c(Cl)c2)NC(=O)CN(C)C(=O)[C@@H]1Cc1ccc(C(F)(F)F)cc1 [PP0158] ([NMeL]I[Aze][Sar][NPrPhe(4-CF3)][Sar][hPhe(3-Cl-4-CF3)]P[Ac5c][NMeGly(cPent)][NMeD]-Morpholide; lactam N-11) |  |  |  | 15.4 nM |  |  | B (a compound having 3 or more and less than 10 is denoted as B) | A (a compound having 10 or more and less than 20 is denoted as A) |  | 0.85 nM

— EP4603105A1, “PHARMACEUTICAL COMPOSITION CONTAINING CYCLIC COMPOUND HAVING SELECTIVE KRAS INHIBITORY EFFECT AGAINST HRAS AND NRAS” (CHUGAI SEIYAKU KABUSHIKI KAISHA, priority 2022, dated 2024)
